{
  "source": "patent US6825382B2",
  "about": "“Trifluoromethylepinephrine compounds and methods of making and using thereof” (The United States of America as represented by the …, priority 2002, dated 2004)",
  "origin": "cited, not measured here",
  "key": {"[1]": {"details": "1a versus 1b"}},
  "note": "Where two headings read alike, the source gives them in different places.",
  "data": [
    {"smiles": "CNC[C@H](O)c1ccc(O)c(O)c1", "note": "[epinephrine]", "values": [
      {"measurement": "epinephrine remaining, of the initial concentration", "setting": "dental preparations stored under clinical conditions", "result": "less than 70%"},
      {"measurement": "epinephrine remaining, of the initial concentration", "setting": "dental preparations stored under optimal conditions", "result": "85 to 90", "unit": "%"}
    ]},
    {"smiles": "CNC[C@H](O)c1ccc(O)c(O)c1", "note": "[1a, (−)-epinephrine]", "values": [
      {"measurement": "biological activity of (R)-enantiomer relative to (S)-enantiomer", "setting": "[1]", "result": "15-20 times"}
    ]}
  ]
}
